# Assay results reported in ChEMBL document CHEMBL3991601, “The target landscape of clinical kinase drugs” (Science, 2017).
# Structures can show the parent of a compound that is named as a salt. Activity calls are given as the source filed them. For most assays here, no stated cut-off is given here; in the data, actives have a measured Kd and inactives only a lower limit.
# Experiments:
# Aurora kinase A = biological target: T1, Aurora kinase A (Homo sapiens, UniProt O14965)
# T1 sequence (O14965 whole entry): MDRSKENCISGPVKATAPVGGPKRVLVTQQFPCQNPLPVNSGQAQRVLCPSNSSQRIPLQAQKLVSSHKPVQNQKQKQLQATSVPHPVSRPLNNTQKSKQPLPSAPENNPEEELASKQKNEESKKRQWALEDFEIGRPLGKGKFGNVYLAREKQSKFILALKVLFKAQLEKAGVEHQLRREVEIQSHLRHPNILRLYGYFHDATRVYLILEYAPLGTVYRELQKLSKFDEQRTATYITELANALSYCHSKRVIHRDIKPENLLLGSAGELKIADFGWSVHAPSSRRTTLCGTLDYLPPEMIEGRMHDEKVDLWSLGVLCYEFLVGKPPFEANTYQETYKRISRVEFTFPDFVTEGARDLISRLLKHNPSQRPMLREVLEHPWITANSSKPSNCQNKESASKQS
# [1] = biological target: Serine/threonine-protein kinase MRCK beta (Homo sapiens, UniProt Q9Y5S2)
# [2] = biological target: Fibroblast growth factor receptor 1 (Homo sapiens, UniProt P11362)
# [3] = biological target: Putative heat shock protein HSP 90-beta 2 (Homo sapiens, UniProt Q58FF8)
# [4] = biological target: Interleukin-1 receptor-associated kinase 1 (Homo sapiens, UniProt P51617)
# [5] = biological target: T2, Interleukin-1 receptor-associated kinase 4 (Homo sapiens, UniProt Q9NWZ3)
# T2 sequence (Q9NWZ3 whole entry): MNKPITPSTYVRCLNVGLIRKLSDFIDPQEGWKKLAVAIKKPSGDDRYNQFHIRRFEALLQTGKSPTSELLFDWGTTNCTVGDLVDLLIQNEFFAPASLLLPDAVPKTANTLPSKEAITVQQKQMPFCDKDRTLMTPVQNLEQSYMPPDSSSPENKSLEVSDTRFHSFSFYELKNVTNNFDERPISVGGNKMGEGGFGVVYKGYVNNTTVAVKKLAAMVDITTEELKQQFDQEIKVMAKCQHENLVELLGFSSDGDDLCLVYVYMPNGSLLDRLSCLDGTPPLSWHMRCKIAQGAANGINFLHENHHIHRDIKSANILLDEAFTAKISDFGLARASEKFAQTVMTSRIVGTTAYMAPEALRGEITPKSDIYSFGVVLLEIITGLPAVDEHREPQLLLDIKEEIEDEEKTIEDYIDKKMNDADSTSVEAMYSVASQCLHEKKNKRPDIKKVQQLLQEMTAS
# LIM domain kinase 1 = LIM domain kinase 1 (Homo sapiens, UniProt P53667)
# [6] = biological target: Dual specificity mitogen-activated protein kinase kinase 2 (Homo sapiens, UniProt P36507)
# [7] = biological target: Mitogen-activated protein kinase 11 (Homo sapiens, UniProt Q15759)
# [8] = biological target: T3, Serine/threonine-protein kinase Nek3 (Homo sapiens, UniProt P51956)
# T3 sequence (P51956 whole entry): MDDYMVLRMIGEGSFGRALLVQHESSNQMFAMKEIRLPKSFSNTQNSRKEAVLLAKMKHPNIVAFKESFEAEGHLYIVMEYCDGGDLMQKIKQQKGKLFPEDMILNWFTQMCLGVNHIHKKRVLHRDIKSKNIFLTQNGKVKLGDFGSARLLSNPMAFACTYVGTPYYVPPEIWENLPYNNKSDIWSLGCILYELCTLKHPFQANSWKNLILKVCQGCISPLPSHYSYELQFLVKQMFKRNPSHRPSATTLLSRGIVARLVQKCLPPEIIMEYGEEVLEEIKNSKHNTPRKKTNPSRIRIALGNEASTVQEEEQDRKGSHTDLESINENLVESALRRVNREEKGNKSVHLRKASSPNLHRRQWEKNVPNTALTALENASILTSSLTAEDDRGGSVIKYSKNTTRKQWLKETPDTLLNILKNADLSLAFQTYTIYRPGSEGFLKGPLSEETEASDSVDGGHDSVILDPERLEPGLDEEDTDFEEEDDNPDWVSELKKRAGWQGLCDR
# [9] = biological target: T4, Bifunctional phosphoribosylaminoimidazole carboxylase/phosphoribosylaminoimidazole succinocarboxamide synthetase (Homo sapiens, UniProt P22234)
# T4 sequence (P22234 whole entry): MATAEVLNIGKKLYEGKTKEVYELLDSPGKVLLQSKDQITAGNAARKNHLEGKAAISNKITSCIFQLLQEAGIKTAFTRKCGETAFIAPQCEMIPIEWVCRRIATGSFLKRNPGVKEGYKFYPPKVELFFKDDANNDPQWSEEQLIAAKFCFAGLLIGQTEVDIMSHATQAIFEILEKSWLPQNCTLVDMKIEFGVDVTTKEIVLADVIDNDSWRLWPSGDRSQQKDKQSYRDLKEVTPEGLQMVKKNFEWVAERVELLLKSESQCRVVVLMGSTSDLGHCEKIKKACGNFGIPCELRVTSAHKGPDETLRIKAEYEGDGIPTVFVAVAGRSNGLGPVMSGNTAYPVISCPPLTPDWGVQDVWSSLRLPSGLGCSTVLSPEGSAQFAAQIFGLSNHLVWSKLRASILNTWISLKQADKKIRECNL
# [10] = biological target: T5, Ras-related protein Rab-27A (Homo sapiens, UniProt P51159)
# T5 sequence (P51159 whole entry): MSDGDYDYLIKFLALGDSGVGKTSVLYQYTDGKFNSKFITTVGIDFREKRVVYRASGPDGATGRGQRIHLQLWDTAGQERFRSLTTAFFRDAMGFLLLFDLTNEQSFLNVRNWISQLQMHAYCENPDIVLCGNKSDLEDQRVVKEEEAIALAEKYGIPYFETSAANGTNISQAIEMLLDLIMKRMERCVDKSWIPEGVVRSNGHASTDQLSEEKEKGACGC
# [11] = biological target: Proto-oncogene tyrosine-protein kinase Src (Homo sapiens, UniProt P12931)
# [12] = biological target: Tyrosine-protein kinase Yes (Homo sapiens, UniProt P07947)
# Tyrosine-protein kinase Yes, sequence (P07947 whole entry, the tested form may be a part): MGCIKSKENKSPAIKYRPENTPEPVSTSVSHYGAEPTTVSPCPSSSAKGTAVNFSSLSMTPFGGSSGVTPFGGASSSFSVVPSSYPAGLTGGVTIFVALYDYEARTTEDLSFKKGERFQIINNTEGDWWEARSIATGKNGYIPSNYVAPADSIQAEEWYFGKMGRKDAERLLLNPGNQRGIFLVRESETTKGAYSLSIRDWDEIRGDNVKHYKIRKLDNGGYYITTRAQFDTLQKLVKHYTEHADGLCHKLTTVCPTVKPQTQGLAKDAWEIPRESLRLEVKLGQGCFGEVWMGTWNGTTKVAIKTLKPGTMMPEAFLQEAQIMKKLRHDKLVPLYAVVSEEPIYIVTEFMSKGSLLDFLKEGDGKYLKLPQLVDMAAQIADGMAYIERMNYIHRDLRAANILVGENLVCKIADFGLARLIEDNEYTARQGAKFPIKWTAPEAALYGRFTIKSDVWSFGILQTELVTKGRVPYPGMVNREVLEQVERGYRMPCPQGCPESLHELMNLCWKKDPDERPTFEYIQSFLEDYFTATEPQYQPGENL
# Fibroblast growth factor receptor 1, sequence (P11362 whole entry): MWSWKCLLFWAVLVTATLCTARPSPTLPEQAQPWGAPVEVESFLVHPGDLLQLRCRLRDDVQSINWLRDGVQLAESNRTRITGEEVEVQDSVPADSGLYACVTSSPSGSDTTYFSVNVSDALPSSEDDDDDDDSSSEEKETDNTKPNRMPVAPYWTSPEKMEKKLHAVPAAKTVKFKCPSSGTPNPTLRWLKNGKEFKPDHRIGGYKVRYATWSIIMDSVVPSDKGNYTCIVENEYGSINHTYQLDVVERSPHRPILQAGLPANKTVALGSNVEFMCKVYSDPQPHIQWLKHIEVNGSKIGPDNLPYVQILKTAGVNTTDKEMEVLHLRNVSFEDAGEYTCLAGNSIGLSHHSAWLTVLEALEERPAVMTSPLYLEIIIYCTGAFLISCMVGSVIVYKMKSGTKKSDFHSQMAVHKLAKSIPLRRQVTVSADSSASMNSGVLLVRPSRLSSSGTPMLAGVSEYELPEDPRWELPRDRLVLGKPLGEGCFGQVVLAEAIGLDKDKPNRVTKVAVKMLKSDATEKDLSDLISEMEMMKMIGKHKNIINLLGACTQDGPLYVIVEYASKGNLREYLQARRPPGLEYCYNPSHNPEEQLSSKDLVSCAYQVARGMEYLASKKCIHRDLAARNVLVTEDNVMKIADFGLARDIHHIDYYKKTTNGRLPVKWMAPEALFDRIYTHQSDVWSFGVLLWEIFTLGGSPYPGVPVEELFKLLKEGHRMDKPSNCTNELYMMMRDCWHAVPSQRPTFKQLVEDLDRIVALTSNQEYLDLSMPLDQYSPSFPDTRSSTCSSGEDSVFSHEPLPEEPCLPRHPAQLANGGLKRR
# Putative heat shock protein HSP 90-beta 2, sequence (Q58FF8 whole entry): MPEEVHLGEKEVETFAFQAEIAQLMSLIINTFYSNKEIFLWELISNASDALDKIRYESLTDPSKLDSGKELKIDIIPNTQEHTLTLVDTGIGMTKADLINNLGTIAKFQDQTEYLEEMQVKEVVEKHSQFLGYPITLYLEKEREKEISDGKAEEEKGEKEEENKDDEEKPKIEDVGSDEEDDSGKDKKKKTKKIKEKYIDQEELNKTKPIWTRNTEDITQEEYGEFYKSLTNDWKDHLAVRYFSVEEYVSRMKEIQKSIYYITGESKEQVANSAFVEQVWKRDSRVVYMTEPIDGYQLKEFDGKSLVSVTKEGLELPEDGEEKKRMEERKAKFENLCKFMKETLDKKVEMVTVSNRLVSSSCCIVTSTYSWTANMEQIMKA
# Serine/threonine-protein kinase MRCK beta, sequence (Q9Y5S2 whole entry): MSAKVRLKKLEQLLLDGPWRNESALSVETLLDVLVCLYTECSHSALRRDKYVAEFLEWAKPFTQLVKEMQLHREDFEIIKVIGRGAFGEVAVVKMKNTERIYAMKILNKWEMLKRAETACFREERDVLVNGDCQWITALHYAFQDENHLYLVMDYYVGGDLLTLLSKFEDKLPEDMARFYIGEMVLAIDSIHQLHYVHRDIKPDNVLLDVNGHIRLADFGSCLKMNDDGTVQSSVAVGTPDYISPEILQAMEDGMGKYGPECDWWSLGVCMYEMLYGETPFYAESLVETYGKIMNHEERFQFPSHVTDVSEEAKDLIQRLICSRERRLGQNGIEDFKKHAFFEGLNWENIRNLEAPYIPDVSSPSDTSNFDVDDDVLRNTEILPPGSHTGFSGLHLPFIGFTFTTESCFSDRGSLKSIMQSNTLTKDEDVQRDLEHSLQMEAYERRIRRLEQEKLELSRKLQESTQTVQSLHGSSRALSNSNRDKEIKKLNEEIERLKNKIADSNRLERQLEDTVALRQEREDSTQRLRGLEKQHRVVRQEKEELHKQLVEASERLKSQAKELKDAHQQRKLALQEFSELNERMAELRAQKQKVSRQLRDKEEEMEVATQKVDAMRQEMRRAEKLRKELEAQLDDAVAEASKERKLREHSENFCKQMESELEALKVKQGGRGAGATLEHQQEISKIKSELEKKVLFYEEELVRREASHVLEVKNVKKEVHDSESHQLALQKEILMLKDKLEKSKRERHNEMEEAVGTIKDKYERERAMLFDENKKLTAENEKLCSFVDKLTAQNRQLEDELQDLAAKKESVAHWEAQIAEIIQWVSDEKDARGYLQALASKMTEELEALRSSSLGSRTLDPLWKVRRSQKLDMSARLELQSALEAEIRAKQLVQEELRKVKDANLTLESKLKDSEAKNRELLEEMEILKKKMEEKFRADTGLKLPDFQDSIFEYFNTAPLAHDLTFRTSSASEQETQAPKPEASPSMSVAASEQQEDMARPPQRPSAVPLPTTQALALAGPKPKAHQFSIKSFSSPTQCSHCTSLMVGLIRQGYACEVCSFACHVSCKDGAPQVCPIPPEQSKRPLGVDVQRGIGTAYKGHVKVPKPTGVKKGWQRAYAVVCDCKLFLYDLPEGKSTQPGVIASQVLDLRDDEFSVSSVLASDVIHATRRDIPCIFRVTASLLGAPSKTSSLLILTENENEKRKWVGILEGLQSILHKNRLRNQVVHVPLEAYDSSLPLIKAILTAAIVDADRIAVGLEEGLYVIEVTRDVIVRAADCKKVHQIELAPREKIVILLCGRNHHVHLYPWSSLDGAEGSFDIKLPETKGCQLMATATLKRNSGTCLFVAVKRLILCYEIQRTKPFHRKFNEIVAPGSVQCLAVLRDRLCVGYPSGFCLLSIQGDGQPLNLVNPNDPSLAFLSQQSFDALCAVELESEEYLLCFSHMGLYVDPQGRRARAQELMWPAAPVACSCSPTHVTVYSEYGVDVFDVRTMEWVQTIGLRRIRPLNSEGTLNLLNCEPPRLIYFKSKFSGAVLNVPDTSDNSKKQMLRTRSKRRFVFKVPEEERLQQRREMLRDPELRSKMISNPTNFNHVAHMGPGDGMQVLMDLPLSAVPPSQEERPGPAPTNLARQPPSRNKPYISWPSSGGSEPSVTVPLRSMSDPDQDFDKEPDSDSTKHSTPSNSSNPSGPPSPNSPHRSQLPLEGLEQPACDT
# Dual specificity mitogen-activated protein kinase kinase 2, sequence (P36507 whole entry): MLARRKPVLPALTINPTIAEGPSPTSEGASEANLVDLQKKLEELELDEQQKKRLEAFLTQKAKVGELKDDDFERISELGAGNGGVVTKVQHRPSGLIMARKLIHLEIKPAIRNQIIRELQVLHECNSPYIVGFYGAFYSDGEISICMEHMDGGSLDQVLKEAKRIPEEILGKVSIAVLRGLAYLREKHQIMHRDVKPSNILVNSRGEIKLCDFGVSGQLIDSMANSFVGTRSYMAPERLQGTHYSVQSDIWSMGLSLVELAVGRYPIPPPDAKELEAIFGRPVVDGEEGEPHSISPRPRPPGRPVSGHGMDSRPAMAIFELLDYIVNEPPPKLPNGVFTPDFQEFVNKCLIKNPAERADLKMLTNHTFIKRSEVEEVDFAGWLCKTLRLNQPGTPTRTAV
# Proto-oncogene tyrosine-protein kinase Src, sequence (P12931 2-536 limits assumed): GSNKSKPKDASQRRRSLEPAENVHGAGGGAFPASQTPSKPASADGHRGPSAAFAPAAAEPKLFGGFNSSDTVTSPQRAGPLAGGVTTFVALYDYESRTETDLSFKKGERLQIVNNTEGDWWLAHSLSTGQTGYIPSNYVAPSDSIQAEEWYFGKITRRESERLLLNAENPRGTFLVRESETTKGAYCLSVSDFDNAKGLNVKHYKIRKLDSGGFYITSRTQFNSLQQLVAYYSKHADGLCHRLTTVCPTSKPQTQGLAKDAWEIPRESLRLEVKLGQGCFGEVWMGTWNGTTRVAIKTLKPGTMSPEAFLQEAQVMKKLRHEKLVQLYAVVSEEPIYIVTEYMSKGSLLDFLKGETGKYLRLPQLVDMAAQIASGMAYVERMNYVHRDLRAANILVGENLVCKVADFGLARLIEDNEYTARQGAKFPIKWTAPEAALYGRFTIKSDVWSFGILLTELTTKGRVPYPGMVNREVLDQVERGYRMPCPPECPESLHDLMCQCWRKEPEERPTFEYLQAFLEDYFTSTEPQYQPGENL
# LIM domain kinase 1, sequence (P53667 whole entry, the tested form may be a part): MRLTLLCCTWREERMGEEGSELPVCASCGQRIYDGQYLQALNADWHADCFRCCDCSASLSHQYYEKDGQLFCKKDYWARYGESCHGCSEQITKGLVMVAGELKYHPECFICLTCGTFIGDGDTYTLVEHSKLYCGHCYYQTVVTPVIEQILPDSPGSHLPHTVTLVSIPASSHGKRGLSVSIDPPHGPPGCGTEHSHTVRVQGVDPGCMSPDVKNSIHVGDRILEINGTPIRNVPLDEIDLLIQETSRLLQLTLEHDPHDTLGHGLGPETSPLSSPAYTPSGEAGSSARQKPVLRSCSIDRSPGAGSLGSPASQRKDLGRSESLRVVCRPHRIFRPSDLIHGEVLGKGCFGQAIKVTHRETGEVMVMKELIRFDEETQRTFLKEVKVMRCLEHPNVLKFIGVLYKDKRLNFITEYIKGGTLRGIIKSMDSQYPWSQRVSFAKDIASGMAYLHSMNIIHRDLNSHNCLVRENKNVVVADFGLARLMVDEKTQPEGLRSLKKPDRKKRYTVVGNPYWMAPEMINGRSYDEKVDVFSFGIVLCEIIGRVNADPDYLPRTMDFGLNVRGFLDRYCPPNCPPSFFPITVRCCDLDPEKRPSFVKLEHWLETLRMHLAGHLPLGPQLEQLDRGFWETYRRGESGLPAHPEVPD
SMILES,Kd (Aurora kinase A),Kd [1],Kd [2],Kd [3],Kd [4],Kd [5],Kd (LIM domain kinase 1),Kd [6],Kd [7],Kd [8],Kd [9],Kd [10],Kd [11],Kd [12]
C#Cc1cccc(Nc2ncnc3cc(OC)c(OCCCCCCC(=O)NO)cc23)c1 [CUDC-101],> 30 µM (inactive),> 30 µM (inactive),> 30 µM (inactive),> 30 µM (inactive),> 30 µM (inactive),> 30 µM (inactive),> 30 µM (inactive),> 30 µM (inactive),> 30 µM (inactive),> 30 µM (inactive),> 30 µM (inactive),> 30 µM (inactive),> 30 µM (inactive),> 30 µM (inactive)
CCS(=O)(=O)N1CCN(c2ccc(Nc3ncc(C(N)=O)c(NC4CC4)n3)cc2)CC1 [Cerdulatinib Hydrochloride],> 30 µM (inactive),> 30 µM (inactive),> 30 µM (inactive),> 30 µM (inactive),> 30 µM (inactive),> 30 µM (inactive),> 30 µM (inactive),> 30 µM (inactive),> 30 µM (inactive),1.1 µM (active),> 30 µM (inactive),> 30 µM (inactive),> 30 µM (inactive),> 30 µM (inactive)
O=C(Nc1nc2cccc(-c3ccc(CN4CCS(=O)(=O)CC4)cc3)n2n1)C1CC1 [FILGOTINIB],> 30 µM (inactive),> 30 µM (inactive),> 30 µM (inactive),> 30 µM (inactive),4.71 µM (active),> 30 µM (inactive),> 30 µM (inactive),> 30 µM (inactive),> 30 µM (inactive),> 30 µM (inactive),> 30 µM (inactive),> 30 µM (inactive),> 30 µM (inactive),> 30 µM (inactive)
Cc1cccc(-c2nn3c(c2-c2ccnc4ccc(C(N)=O)cc24)CCC3)n1 [GALUNISERTIB],> 30 µM (inactive),> 30 µM (inactive),> 30 µM (inactive),> 30 µM (inactive),> 30 µM (inactive),> 30 µM (inactive),> 30 µM (inactive),> 30 µM (inactive),> 30 µM (inactive),> 30 µM (inactive),> 30 µM (inactive),> 30 µM (inactive),> 30 µM (inactive),> 30 µM (inactive)
COc1ccc(S(=O)(=O)N(C(C)=O)c2ccccc2/C=C/c2cc[n+]([O-])cc2)cc1 [HMN-214],> 30 µM (inactive),> 30 µM (inactive),> 30 µM (inactive),> 30 µM (inactive),> 30 µM (inactive),> 30 µM (inactive),> 30 µM (inactive),> 30 µM (inactive),> 30 µM (inactive),> 30 µM (inactive),> 30 µM (inactive),> 30 µM (inactive),> 30 µM (inactive),> 30 µM (inactive)
CNC(=O)c1cccc2cc(Oc3ccnc4cc(OCC5(N)CC5)c(OC)cc34)ccc12 [LUCITANIB],> 30 µM (inactive),> 30 µM (inactive),> 30 µM (inactive),> 30 µM (inactive),> 30 µM (inactive),> 30 µM (inactive),> 30 µM (inactive),> 30 µM (inactive),> 30 µM (inactive),> 30 µM (inactive),> 30 µM (inactive),> 30 µM (inactive),> 30 µM (inactive),> 30 µM (inactive)
NC1(c2ccc(-c3nc4ccn5c(=O)[nH]nc5c4cc3-c3ccccc3)cc2)CCC1 [MK-2206],> 30 µM (inactive),> 30 µM (inactive),> 30 µM (inactive),> 30 µM (inactive),> 30 µM (inactive),> 30 µM (inactive),> 30 µM (inactive),> 30 µM (inactive),> 30 µM (inactive),> 30 µM (inactive),> 30 µM (inactive),> 30 µM (inactive),> 30 µM (inactive),> 30 µM (inactive)
CN(C[C@@H]1COCCO1)S(=O)(=O)Nc1ccc2ccc3ncc(-c4cnn(C)c4)cc3c(=O)c2c1 [MK-2461],> 30 µM (inactive),> 30 µM (inactive),> 30 µM (inactive),> 30 µM (inactive),> 30 µM (inactive),1.47 µM (active),> 30 µM (inactive),> 30 µM (inactive),> 30 µM (inactive),> 30 µM (inactive),> 30 µM (inactive),> 30 µM (inactive),> 30 µM (inactive),> 30 µM (inactive)
Cn1cc(-c2cnc3ccc4ccc(CS(=O)(=O)NCc5ccccn5)cc4c(=O)c3c2)cn1 [MK-8033],> 30 µM (inactive),> 30 µM (inactive),> 30 µM (inactive),> 30 µM (inactive),> 30 µM (inactive),> 30 µM (inactive),> 30 µM (inactive),> 30 µM (inactive),> 30 µM (inactive),> 30 µM (inactive),> 30 µM (inactive),> 30 µM (inactive),> 30 µM (inactive),> 30 µM (inactive)
FC(F)(F)c1ccc(/C=C/c2nc(COc3ccc(CCCCn4ccnn4)cc3)co2)cc1 [MUBRITINIB],> 30 µM (inactive),> 30 µM (inactive),> 30 µM (inactive),> 30 µM (inactive),> 30 µM (inactive),> 30 µM (inactive),> 30 µM (inactive),> 30 µM (inactive),> 30 µM (inactive),> 30 µM (inactive),> 30 µM (inactive),> 30 µM (inactive),> 30 µM (inactive),> 30 µM (inactive)
COc1ncc(-c2ccc3nccc(-c4ccnnc4)c3c2)cc1NS(=O)(=O)c1ccc(F)cc1F [OMIPALISIB],> 30 µM (inactive),> 30 µM (inactive),> 30 µM (inactive),> 30 µM (inactive),> 30 µM (inactive),> 30 µM (inactive),> 30 µM (inactive),> 30 µM (inactive),> 30 µM (inactive),> 30 µM (inactive),> 30 µM (inactive),> 30 µM (inactive),> 30 µM (inactive),> 30 µM (inactive)
